Data published in US11634417B2 (Array BioPharma Inc., priority 2019, dated 2023).
Like-named read-outs stand apart in the source and are kept apart here.

Tests used:
full-length SHP2 = biological target: T1, full-length SHP2 (Homo sapiens, UniProt Q06124); test: SHP2 enzymatic assay (fluorescence intensity kinetic assay, DiFMUP hydrolysis); assay type: biochemical; conditions: 1 nM His6-tagged SHP2(2-527), 1 μM activating peptide, 50 μM DiFMUP; single assay or mean of multiple assays; read-out: Biological Example 1 IC50
T1 construct: 1 nM full-length SHP2 (His6-tagged SHP2(2-527), recombinantly expressed in E. coli and purified in-house); His6; made in house; host or cells: E. coli
T1 sequence (Q06124 2-527): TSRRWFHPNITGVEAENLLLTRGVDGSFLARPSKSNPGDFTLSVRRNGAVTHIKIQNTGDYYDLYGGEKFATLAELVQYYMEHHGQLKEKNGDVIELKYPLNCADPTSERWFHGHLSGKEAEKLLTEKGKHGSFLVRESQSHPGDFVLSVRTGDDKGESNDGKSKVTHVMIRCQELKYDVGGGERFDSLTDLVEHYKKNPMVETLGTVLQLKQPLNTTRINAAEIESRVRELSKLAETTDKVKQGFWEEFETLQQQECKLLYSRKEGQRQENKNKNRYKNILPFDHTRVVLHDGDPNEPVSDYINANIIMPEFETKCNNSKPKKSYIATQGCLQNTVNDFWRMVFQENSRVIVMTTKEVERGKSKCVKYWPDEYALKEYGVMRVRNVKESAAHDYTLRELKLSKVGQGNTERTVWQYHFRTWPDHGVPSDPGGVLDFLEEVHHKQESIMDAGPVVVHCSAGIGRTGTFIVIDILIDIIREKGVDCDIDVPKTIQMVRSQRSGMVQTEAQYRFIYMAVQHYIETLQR
Method: A fluorescence intensity kinetic assay was configured for full-length SHP2 that monitors the amount of 6,8-difluoro-7-hydroxy-4-methylcoumarin (“DiFMU”) formed upon hydrolysis of 6,8-difluoro-4-methylumbelliferyl phosphate (“DiFMUP”) by SHP2. […] Low control wells lacked enzyme. The assays were initiated by the addition of a mixture of SHP2 and the activating peptide, and following a 15 second mix on an orbital shaker, were read in kinetic mode for 15 minutes (30 seconds/cycle) at ambient temperature on a PerkinElmer EnVision microplate reader (kEx=355 nm, kEm=460 nm). Initial velocities (slopes of the tangents at t=0) were estimated from exponential fits to the slightly nonlinear progress curves and then were converted to percent of control (“POC”) using the following equation:
[formula] • Where: xmax Average Uninhibited Controls • Xmin Average Background A 4-parameter logistic model was the fit to the POC data for each compound. From that fit, the IC50 was estimated and is defined as the concentration of compound at which the curve crosses 50 POC.

[1] = system: ERK1/2 (Thr202/Tyr204) phosphorylation in KYSE520 cells; test: Cellular Phospho-p44/42 MAPK (Erk1/2) (Thr202/Tyr204) assay, In-Cell Western; assay type: cell-based; conditions: Homo sapiens
Method: Inhibition of ERK1/2 (Thr202/Tyr204) phosphorylation was determined by the following cellular assay, which comprises incubating cells with a compound for 1 hour and quantifying pERK signal by In-Cell Western on fixed cells and normalizing to GAPDH signal. KYSE520 cells were obtained from DSMZ and grown in RPMI supplemented with 10% fetal bovine serum, penicillin/streptomycin, 2 mM L-alanyl-L-glutamine dipeptide in 0.85% NaCl (Glutamax™), non-essential amino acids, and sodium pyruvate. Cells were plated in 96-well plates at 30,000 cells/well and allowed to attach overnight at 37° C./5% CO2. Cells were treated with compounds prepared as a 10-point, 1:3 dilution series (range: 20 μM-1 nM), with a final DMSO concentration of 0.5%. After 1 hour incubation, cells were fixed in 3.7% formaldehyde in Dulbecco's phosphate-buffered saline (“dPBS”) at room temperature for 20 minutes. Cells were then washed with dPBS and permeabilized in 100% MeOH at room temperature for 10 minutes. Following permeabilization, cells were washed in dPBS and incubated in LI-COR Blocking Buffer (LI-COR Biosciences, Cat #927-40000) for 1 hour or longer. Plates were then incubated with an antibody specific for the MEK-dependent ERK1/2 phosphorylation sites, threonine 202 and tyrosine 204 (Cell Signaling Technologies; Cat #9101), downstream of SHP2 in the MAP kinase signal transduction pathway, as well as GAPDH (Millipore; Cat #MAB374). pErk1/2 (Thr202/Tyr204) antibody was diluted in LI-COR blocking buffer containing 0.05% polysorbate-20 (Tween-20) at 1:250; GAPDH was diluted at 1:2,500. The plates were incubated overnight at 4° C. After washing with PBS/0.05% Tween-20, the cells were incubated with fluorescently-labeled secondary antibodies (Anti-rabbit-Alexa Flour680, Invitrogen Cat #A21109; Anti-mouse-IRDye800CW, Li-cor Bioscieces Cat #926-32210, both at 1:1000 dilution) for 1 hour. Cells were then washed, as above, and analyzed for fluorescence at both 680 nm and 800 nm wavelengths using the Aerius Infrared Imaging System (LI-COR Biosciences, Model 9250). Phosphorylated Erk1/2 ([…]) signal was normalized to GAPDH signal for each well. IC50 values were calculated from the normalized values using a 4-parameter fit in BioAssay software. The reported IC50 in Table 2 may be from a single assay or the mean of multiple assays.

[2] = KYSE-520, KYSE520 cells, 1 hour incubation, pERK signal normalized to GAPDH, single assay or mean of multiple assays, read-out: Biological Example 2 IC50
[3] = KYSE-520, 1 h, read-out: Biological Example 2 IC50 (nM)

Row | SMILES | IC50 (full-length SHP2) [nM] | IC50 [1, 2] [nM] | IC50 [1, 3] [nM]
1 | COc1cnc2c(c1)[C@@H](N)C1(CCN(c3ncc(Sc4ccnc(N)c4Cl)nn3)CC1)C2 (single isomer, unassigned) [Example 44] | 37 | 4 | 
2 | Cc1cccc2c1CC1(CCN(c3ncc(Sc4ccnc(N)c4Cl)nn3)CC1)[C@@H]2N [Example 48, (S)-1′-(6-((2-amino-3-chloropyridin-4-yl)thio)-1,2,4-triazin-3-yl)-4-methyl-1,3-dihydrospiro[indene-2,4′-piperidin]-1-amine] | 30 | 5 | 
3 | Nc1nccc(Sc2cnc(N3CCC4(CC3)Cc3ccccc3[C@@H]4N)nn2)c1Cl [Example 20, (R)-1′-(6-((2-amino-3-chloropyridin-4-yl)thio)-1,2,4-triazin-3-yl)-1,3-dihydrospiro[indene-2,4′-piperidin]-1-amine] |  |  | 206
4 | Cc1ccc2c(c1)CC1(CCN(c3ncc(Sc4ccnc(N)c4Cl)nn3)CC1)[C@H]2N [Example 59, (R)-1′-(6-((2-amino-3-chloropyridin-4-yl)thio)-1,2,4-triazin-3-yl)-5-methyl-1,3-dihydrospiro[indene-2,4′-piperidin]-1-amine] | 118 | 170 | 
5 | Nc1nccc(Sc2cnc(N3CCC4(CC3)Oc3ccccc3[C@H]4N)nn2)c1Cl [Example 23, (R)-1′-(6-((2-amino-3-chloropyridin-4-yl)thio)-1,2,4-triazin-3-yl)-3H-spiro[benzofuran-2,4′-piperidin]-3-amine] | 35 | 12 | 
6 | C[C@@H]1OCC2(CCN(c3ncc(-c4cccc(Cl)c4Cl)nn3)CC2)[C@@H]1N [Example 2, (3S,4S)-8-(6-(2,3-dichlorophenyl)-1,2,4-triazin-3-yl)-3-methyl-2-oxa-8-azaspiro[4.5]decan-4-amine] | 76 | 2780 | 
7 | N[C@@H]1c2ccccc2CC12CCN(c1ncc(-c3ccccc3Cl)nn1)CC2 [Example 31, (S)-1′-(6-(2-chlorophenyl)-1,2,4-triazin-3-yl)-1,3-dihydrospiro[indene-2,4′-piperidin]-1-amine] | 23 | 424 | 
8 | C[C@@H]1OCC2(CCN(c3ncc(Sc4ccc(N)nc4C(F)(F)F)nn3)CC2)[C@@H]1N [Example 56, (3S,4S)-8-(6-((6-amino-2-(trifluoromethyl)pyridin-3-yl)thio)-1,2,4-triazin-3-yl)-3-methyl-2-oxa-8-azaspiro[4.5]decan-4-amine] | 1370 |  | 
9 | C[C@@H]1OCC2(CCN(c3ncc(Sc4ccnc(N)c4F)nn3)CC2)[C@@H]1N [Example 21, (3S,4S)-8-(6-((2-amino-3-fluoropyridin-4-yl)thio)-1,2,4-triazin-3-yl)-3-methyl-2-oxa-8-azaspiro[4.5]decan-4-amine] | 11100 |  | 
10 | [2H][C@]1(N)c2ccccc2CC12CCN(c1ncc(Sc3ccnc(N)c3Cl)nn1)CC2 [Example 75, (R)-1′-(6-((2-amino-3-chloropyridin-4-yl)thio)-1,2,4-triazin-3-yl)-1,3-dihydrospiro[indene-2,4′-piperidin]-1-d-1-amine] |  |  | 100
11 | [2H][C@@]1(N)c2ccccc2CC12CCN(c1ncc(Sc3ccnc(N)c3Cl)nn1)CC2 [Example 74, (S)-1′-(6-((2-amino-3-chloropyridin-4-yl)thio)-1,2,4-triazin-3-yl)-1,3-dihydrospiro[indene-2,4′-piperidin]-1-d-1-amine] |  |  | 1
12 | Nc1nccc(Sc2cnc(N3CCC4(CC3)Cc3ccccc3[C@H]4N)nn2)c1Cl [Example 6, (S)-1′-(6-((2-amino-3-chloropyridin-4-yl)thio)-1,2,4-triazin-3-yl)-1,3-dihydrospiro[indene-2,4′-piperidin]-1-amine] |  |  | 2
13 | N[C@@H]1c2ccccc2CC12CCN(c1ncc(Oc3cnc4[nH]ccc4c3)nn1)CC2 [Example 72, (S)-1′-(6-((1H-pyrrolo[2,3-b]pyridin-5-yl)oxy)-1,2,4-triazin-3-yl)-1,3-dihydrospiro[indene-2,4′-piperidin]-1-amine] | 16400 |  | 
14 | N[C@@H]1c2ccccc2CC12CCN(c1ncc(Sc3cnc4ncccn34)nn1)CC2 [Example 68, (S)-1′-(6-(imidazo[1,2-a]pyrimidin-3-ylthio)-1,2,4-triazin-3-yl)-1,3-dihydrospiro[indene-2,4′-piperidin]-1-amine] | 33 |  | 

The remaining compounds from weak to strong by IC50 (full-length SHP2), led by results:

Row | IC50 (full-length SHP2) [nM] | SMILES | IC50 [1, 2] [nM] | IC50 [1, 3] [nM]
15 | 15000 | Nc1nccc(Sc2cnc(N3C4CCC3CC3(Cc5ccccc5[C@H]3N)C4)nn2)c1Cl (stereo partly drawn) [Example 78, (1′S)-8-(6-((2-amino-3-chloropyridin-4-yl)thio)-1,2,4-triazin-3-yl)-1′,3′-dihydro-8-azaspiro[bicyclo[3.2.1]octane-3,2′-inden]-1′-amine] |  | 
16 | 7950 | N[C@@H]1c2ccccc2CC12CCN(c1ncc(N3CCc4cnccc43)nn1)CC2 [Example 15, (S)-1′-(6-(2,3-dihydro-1H-pyrrolo[3,2-c]pyridin-1-yl)-1,2,4-triazin-3-yl)-1,3-dihydrospiro[indene-2,4′-piperidin]-1-amine] |  | 
17 | 551 | CC1(N)CCCN(c2ncc(Sc3ccnc(N)c3Cl)nn2)CC1 (stereo not shown) [Example 10, 1-(6-((2-amino-3-chloropyridin-4-yl)thio)-1,2,4-triazin-3-yl)-4-methylazepan-4-amine] | 687 | 
18 | 157 | Cc1cccc2c1CC1(CCN(c3ncc(Sc4ccnc(N)c4Cl)nn3)CC1)[C@H]2N [Example 49, (R)-1′-(6-((2-amino-3-chloropyridin-4-yl)thio)-1,2,4-triazin-3-yl)-4-methyl-1,3-dihydrospiro[indene-2,4′-piperidin]-1-amine] | 126 | 
19 | 110 | CC(C)(C#N)CNc1nccc(Sc2cnc(N3CCC4(CC3)Cc3ccccc3[C@H]4N)nn2)c1Cl [Example 36, (S)-3-((4-((3-(1-amino-1,3-dihydrospiro[indene-2,4′-piperidin]-1′-yl)-1,2,4-triazin-6-yl)thio)-3-chloropyridin-2-yl)amino)-2,2-dimethylpropanenitrile] | 17 | 
20 | 39 | Nc1nccc(Sc2cnc(N3CCC4(CC3)Cc3ncsc3[C@H]4N)nn2)c1Cl [Example 58, (S)-1′-(6-((2-amino-3-chloropyridin-4-yl)thio)-1,2,4-triazin-3-yl)-4,6-dihydrospiro[cyclopenta[d]thiazole-5,4′-piperidin]-6-amine] | 1 | 
21 | 8 | N[C@@H]1c2ccccc2CC12CCN(c1ncc([Se]c3ccccc3)nn1)CC2 [Example 40, (S)-1′-(6-(phenylselanyl)-1,2,4-triazin-3-yl)-1,3-dihydrospiro[indene-2,4′-piperidin]-1-amine] |  | 
